Measurements reported in patent US20040142933A1, “Oxindole substituted piperazine derivatives” (priority 2002, published 2004).

Legend:
[1] = molecular target: T1, serotonin 2A (5HT2A) receptor (Homo sapiens, UniProt P28223); experiment: Serotonin 2A binding, [3H]ketanserin, Swiss-h5HT2A cell membranes; conditions: [3H]ketanserin 1.0 nM
T1 construct: expressed in transfected cells; host or cells: Swiss cells (Swiss-h5HT2A)
Source text: (§1) The ability of the compounds of this invention to bind to the dopamine D2 and serotonin 2A (5HT2A) receptors can be determined using conventional radioligand receptor binding assays. All receptors can be heterologously expressed in cell lines and experiments conducted in membrane preparations from the cell lines using procedures outlined below. IC50 concentrations can be determined by nonlinear regression of concentration-dependent reduction in specific binding. The Cheng-Prussoff equation can be used to convert the IC50 to Ki concentrations.
[^3H] Ketanserin binding to Swiss-h5HT2A cell membranes can be carried out in 250 μl of 50 mM Tris-HCl buffer pH 7.4. Duplicate samples containing (in order of addition) test compounds, 1.0 nM [^3H]ketanserin, and approximately 75 μg protein are incubated for 120 minutes at room temperature. Bound radioligand is separated by rapid filtration under reduced pressure through Whatman GF/B glass fiber filters previously treated with 0.3% polyethyleneimine. Radioactivity retained on the filter is determined by liquid scintillation spectrophotometry.
The title compounds of Examples 1-14 were tested using the above assay, in which specific binding determined in the presence of 1 mM ketanserin was 90%.

[2] = molecular target: T2, dopamine D2 receptor (Homo sapiens, UniProt P14416); experiment: Dopamine D2 receptor binding, [3H]spiperone, CHO-hD2L cell membranes; conditions: [3H]spiperone 0.4 nM
T2 construct: expressed in transfected cells; host or cells: CHO cells (CHO-hD2L)
T2 sequence (P14416 whole entry): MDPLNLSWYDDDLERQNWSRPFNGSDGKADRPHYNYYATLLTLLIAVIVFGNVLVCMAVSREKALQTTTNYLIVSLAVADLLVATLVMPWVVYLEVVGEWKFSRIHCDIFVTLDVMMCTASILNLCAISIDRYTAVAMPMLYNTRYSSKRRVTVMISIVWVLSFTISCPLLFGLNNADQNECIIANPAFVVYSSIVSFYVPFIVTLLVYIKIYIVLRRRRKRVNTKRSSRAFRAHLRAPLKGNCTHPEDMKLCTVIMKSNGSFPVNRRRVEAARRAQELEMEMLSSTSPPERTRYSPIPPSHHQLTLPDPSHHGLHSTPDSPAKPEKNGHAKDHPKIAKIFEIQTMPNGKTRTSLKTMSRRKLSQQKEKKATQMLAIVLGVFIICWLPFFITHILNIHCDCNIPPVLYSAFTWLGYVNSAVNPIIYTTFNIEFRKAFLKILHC
Source text: as §1
Dopamine D2 Receptor Binding:
[^3H]Spiperone binding to a membrane preparation from CHO-hD2L cells is carried out in 250 μl of 50 mM Tris-HCl buffer containing 100 mM NaCl, 1 mM MgCl2 and 1% DMSO at pH 7.4. Duplicate samples containing (in order of addition) the test compounds, 0.4 nM [^3H]spiperone and approximately 12 μg protein are incubated for 120 minutes at room temperature. Bound radioligand is separated by rapid filtration under reduced pressure through Whatman GF/B glass fiber filters previously treated with 0.3% polyethyleneimine. Radioactivity retained on the filter is determined by liquid scintillation spectrophotometry.
The title compounds of Examples 1-14 were tested using the above assay, in which specific binding determined in the presence of 1 mM haloperidol was 95%.

T1 sequence (P28223 whole entry): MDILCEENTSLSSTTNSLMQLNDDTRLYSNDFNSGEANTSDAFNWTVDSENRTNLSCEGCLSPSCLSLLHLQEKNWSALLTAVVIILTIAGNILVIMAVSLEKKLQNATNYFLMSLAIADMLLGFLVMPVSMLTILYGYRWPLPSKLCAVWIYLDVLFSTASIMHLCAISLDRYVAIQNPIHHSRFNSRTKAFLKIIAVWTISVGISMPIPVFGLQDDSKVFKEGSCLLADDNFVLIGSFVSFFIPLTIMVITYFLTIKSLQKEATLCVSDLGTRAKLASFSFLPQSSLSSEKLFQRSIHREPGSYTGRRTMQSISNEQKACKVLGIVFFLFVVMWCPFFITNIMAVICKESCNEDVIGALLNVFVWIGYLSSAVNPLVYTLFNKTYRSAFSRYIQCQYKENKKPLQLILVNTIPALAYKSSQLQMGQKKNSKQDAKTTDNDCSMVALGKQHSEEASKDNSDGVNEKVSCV

SMILES | Ki [1] [nM] | Ki [2] [nM]
CC1(C)CC12C(=O)Nc1cc(Cl)c(CCCN3CCN(c4nsc5ccccc45)CC3)cc12 (stereo not drawn) [Example 14, Spiro[cyclopropane-1,3′-{3H}indol]-2′(1′H)-one,5′-[3-[4-{1,2-benzisothiazol-3-yl}-1-piperazinyl]propyl]-6′-chloro-2,2-dimethyl—] | 7.45 | 
CC(C)=C1C(=O)Nc2ccc(CCCN3CCN(c4noc5ccccc45)CC3)cc21 [Example 4, 5-[3-(4-1,2-Benzisoxazol-3-yl-piperazin-1-yl)-propyl]-3-isopropylidene-1,3-dihydro-indol-2-one] |  | 49.4
CC(C)=C1C(=O)N(C)c2ccc(CCN3CCN(c4nsc5ccccc45)CC3)cc21 [Example 1, 5-[2-(4-1,2-benzisothiazol-3-yl-piperazin-1-yl)-ethyl]-3-isopropylidene-1-methyl-1,3-dihydro-indol-2-one] | 0.75 | 14.7
CC(C)=C1C(=O)Nc2cc(Cl)c(CCN3CCN(c4nsc5ccccc45)CC3)cc21 [Example 5, 5-[2-(4-1,2-benzisothiazol-3-yl-piperazin-1-yl)-ethyl]-6-chloro-3-isopropylidene-1,3-dihydro-indol-2-one] | 8.4 | 1.3
